From US20150038707A1, “PROCESS FOR MAKING CGRP RECEPTOR ANTAGONISTS” (Merck Sharp & Dohme Corp., priority 2012, published 2015) come the findings set out here.

The subject of this assay is mosquitoes (Ae. aegypti). Kind of assay: Compound residual life: spatial repellency (Example 11). Type of assay: in vivo. As to conditions: 12 week test period. The method, then:
The four compounds of formula I described in Example 2 were tested for spatial repellency (directed movement away from the chemical source without the insect making physical contact with the treated surface) at low doses on female Aedes aegypti (Thailand strain) mosquitoes. The spatial repellency response was determined by use of the spatial repellency assay disclosed by Grieco et al. in “A New Classification System for the Actions of IRS Chemicals Traditionally Used for Malaria Control” in Plos One, Issue 8 (2007) (available at www.plosone.org) which is incorporated herein by reference for all relevant and consistent purposes. The assay used was a cylindrical assembly that included a treatment chamber at one end and a control chamber at the other end. The treatment chamber included a netting strip (nylon organdy) that was treated with the insecticide of interest at the relevant dose. The treatment chamber and control chamber were connected by a clear cylinder and were separated from the clear cylinder by butterfly valves. Twenty (20) mosquitoes were introduced into the clear central chamber and the butterfly valves were opened after 30 seconds. After 10 minutes, the valves were closed and the number of mosquitoes in each chamber was counted. […]

For the compound `CC1(C)C(C=C(Cl)Cl)C1C(=O)OCc1ccc(F)c(C(F)(F)F)c1F` (stereo not shown) [Compound 1406], the “residual spatial repellent activity (in words)” value is on record as “appeared to be the more residual of the two compounds tested”.
